Reference: patent publication US20220002288A1, “MONOBACTAM COMPOUNDS AND USE THEREFOR” (priority 2018, published 2022)
In brackets after ≈: the same amount, converted by molar mass. One block for each compound: values may come before it.

What was measured:
Acinetobacter baumannii = experiment: In vitro antibacterial activity, minimum inhibitory concentration (MIC); type: cell-based
Procedure: (§1) Compounds: The compounds prepared in the above examples and comparative examples. All test compounds were dissolved and diluted with DMSO, and the final concentrations were prepared as 64, 32, 16, 8, 4, 2, 1, 0.5, 0.25, 0.125, 0.0625 μg/mL in the experiment.
(§2) Bacterial strains: 6 strains of Acinetobacter baumannii (codenames: HDBAB-YK4, HDBAB-YK7, HDBAB-YK12, HDBAB-YK16, HDBAB_OXA_7, ATCC 19606), 2 strains of Pseudomonas aeruginosa (codenames: HDBPA-YK9, HDBPA)-YK15), 1 strain of Escherichia coli (codename: CLB30048), all provided by HD Biosciences (Shanghai) Co., Ltd.
(§3) Medium: Trypticase soy agar (TSA) (BD BBL 211043), and Cation-adjusted Mueller Hinton broth (CAMHB) (BD BBL212322).
(§4) The bacteria used for the minimum inhibitory concentration (MIC) test were stored frozen at −80° C., and needed 2 days to recover before use. A small amount of frozen bacteria was scraped with a sterile inoculation loop for streak inoculation on a TSA solid medium petri dish. The dish was placed in an ordinary incubator at 35±2° C. for 20-24 hours. 5-10 Colonies with similar morphologies were picked from the above-mentioned petri dish with a sterile inoculating loop for streak inoculation again on a TSA solid medium petri dish. The dish was then placed in an ordinary incubator at 35±2° C. for 20-24 hours.
(§5) 1.02×CAMHB liquid medium was taken out from a 4° C. refrigerator and placed at room temperature for preheating. 5-10 Individual bacterial colonies were picked from the solid petri dish of the above Section 2.1 and re-suspended in 500 μL of 0.9% NaCl, and then the OD600 was adjusted to 0.1-0.15 with a spectrophotometer. Then the bacteria were diluted 400 times with 1.02×CAMHB (two-step dilution method: firstly diluting 10 times, then diluting 40 times).
(§6) The number of inoculated bacteria can be obtained by counting the colonies on the petri dish (see Section 2.4).
(§7) One compound was arranged in each row of a 96-well test plate: the highest test concentration for each compound was 64 μg/mL, which was diluted by a factor of two.
(§8) Growth control (GC): 1.02×CAMHB and dimethyl sulfoxide (DMSO) containing bacterial inoculum, no compound.
(§9) Sterile control (SC): Containing 1.02×CAMHB and DMSO, no compound.
(§10) All test compounds were dissolved and diluted with DMSO. 50 μL of 3.2 mg/mL of each test compound was transferred to the initial well (A1-H1) of the dilution plate, and then 25 μL of DMSO was transferred to other wells. The test compounds were sequentially diluted by a factor of 2 from column 1 to column 11 (i.e. drawing 25 μL of test compound from column 1 to column 2 and mixing well, and then drawing 25 μL of test compound from column 2 to column 3 and mixing well, and then drawing 25 μL of test compound from column 3 to column 4 and mixing well, and so on, until diluting to column 11).
(§11) 2 μL of the compound was transferred from the compound plate to the corresponding well of the test plate. Meanwhile, 2 μL of 100% DMSO was transferred to the compound-free wells (the GC and SC wells).
(§12) 98 μL of the corresponding bacterial inoculum was added to the test plate (except for the SC well).
(§13) 98 μL of 1.02×CAMHB medium was added to the SC well of the test plate.
(§14) After the system was added, the test plate was covered with a sterile lid, centrifuged at 800 rpm for 30 seconds, then shaken on a plate shaker at 400 rpm for 1 minute for mixing well, and then placed in an incubator at 35±2° C. for 20 hours.
(§15) The inoculated bacteria were gradient diluted by 10 folds with the liquid medium, from 10^−1 to 10^−3. 100 μL of the above bacterial dilution was spread evenly on a TSA petri dish, 2 replicates for each dilution. After the medium was absorbed by TSA for 10 minutes, the petri dishes were reversed and incubated in an incubator at 35±2° C. for 24 hours.
(§16) A compound management system was turned on to check whether the barcode and compound arrangement of each test plate were correct. […]

Escherichia coli = experiment: as above; type: cell-based; settings: strain CLB30048, read-out: MIC
Procedure: as §1, §2, §3, §4, §5, §6, §7, §8, §9, §10, §11, §12, §13, §14, §15, §16

Pseudomonas aeruginosa = experiment: as above; type: cell-based
Procedure: as §1, §2, §3, §4, §5, §6, §7, §8, §9, §10, §11, §12, §13, §14, §15, §16

[1] = Pharmacokinetics of the compounds in mice; type: in vivo, BALB/c mice
Description: Animals: male BALB/c mice, SPF grade, purchased from Changzhou Cavens Experimental Animal Co., Ltd.; 16-24 g, license number: SCXK (Su)2016-0010; 2 to 3 days of adaptation period were given before the experiment.
Instruments: API 4500 High Performance Liquid Chromatograph Coupled Triple Quadrupole Mass Spectrometer, and Analyst QS A01.01 Chromatography Workstation were both purchased from AB SCIEX of the United States; Milli-Q ultrapure water device was purchased from Millipore; CF16R XII desktop high-speed refrigerated centrifuge was purchased From Hitachi Company; Qilinbeier Vortex-5 oscillator was purchased from IKA Company of German; electric heating constant-temperature water bath was purchased from Changzhou Guohua Electric Appliance Co., Ltd.; electric pipette was purchased from Thermo Company of American; and microanalysis balance was purchased from Shanghai Mettler Co., Ltd.
2 mg of the test compound was weighed, added to physiological saline, vortexed for 2 min, and ultrasonicated for 3 min, to prepare a test solution with a concentration of 0.2 mg/mL for intravenous administration.
A single dose of 2 mg/kg of the test compound was administered to BALB/c mice via the tail vein, the dose volume being 0.1 mL/10 g. At 5 min, 15 min, 30 min, 1 h, 2 h, 4 h after administration, blood samples were collected from the orbital venous plexus into heparinized EP tubes (0.6 mL), which were temporarily placed on crushed ice.
The samples were centrifuged at 8000 rpm for 5 min. 15 μL of upper plasma were transferred to a 96-well plate. 150 μL of methanol:acetonitrile (v/v=1:1) (containing 20 ng/mL tolbutamide) was added to 15 μL of plasma, shaken for 3 min, and centrifuged at 4500 rpm for 5 min. 100 μL of supernatant was taken to a 2 mL deep well plate. 100 μL of diluent (pure water) was added. The samples were shaken for 3 min, and centrifuged at 4500 rpm for 5 min. 180 μL of the supernatant was transferred to the sample plate. The content of the compound in the supernatant sample was analyzed by LC-MS/MS, and various pharmacokinetic parameters were calculated with WinNonlin software.

[2] = tested on: Acinetobacter baumannii, Pseudomonas aeruginosa, and Escherichia coli; experiment: In vitro antibacterial activity, summary statements over all strains of Experimental Example 1; type: cell-based; settings: method of Experimental Example 1
Procedure: as §1, §2
The minimum inhibitory concentration (MIC) of each compound was recorded according to the guidelines of the Clinical and Laboratory Standards Institute.

[3] = tested on: clinically isolated Acinetobacter baumannii; experiment: MIC experiment of clinically sourced bacterial strains; type: cell-based; settings: for MIC: Acinetobacter baumannii
Procedure: (§17) Compounds: the compound of Example 1 and Compound C of Comparative Example 3. Both test compounds were dissolved and diluted with DMSO, and the final concentrations were prepared as 64, 32, 16, 8, 4, 2, 1, 0.5, 0.25, 0.125, 0.0625 μg/mL in the experiment.
(§18) Bacterial strains: clinically isolated Acinetobacter baumannii, Pseudomonas aeruginosa, Klebsiella pneumoniae and Escherichia coli, all provided by HD Biosciences (Shanghai) Co., Ltd.
as §3
(§19) The experimental method was the same as that in the above Experimental Example 1.

[4] = tested on: clinically isolated Escherichia coli; experiment: as above; type: cell-based
Procedure: as §17, §18, §3, §19

[5] = tested on: clinically isolated Klebsiella pneumoniae; experiment: as above; type: cell-based; settings: Klebsiella pneumoniae
Procedure: as §17, §18, §3, §19

[6] = tested on: clinically isolated Pseudomonas aeruginosa; experiment: as above; type: cell-based
Procedure: as §17, §18, §3, §19

[7] = tested on: drug-resistant Acinetobacter baumannii; experiment: MIC in combination with Relebactam; type: cell-based
Description: In addition, the inventors of the present invention also tested the inhibitory activities of the compound of Example 1 and Compound C, respectively, in combination with Relebactam on drug-resistant Acinetobacter baumannii (the experimental method was the same as that in Experimental Example 1).

[8] = mouse, male BALB/c mice, single intravenous dose 2 mg/kg, plasma

Structure (SMILES): CC(CN)Nc1ccc(-c2ccc(OC[C@H](O/N=C(\C(=O)N[C@@H]3C(=O)N(OS(=O)(=O)[O-])C3(C)C)c3csc(N)n3)C(=O)O)cc2)c[n+]1C (stereo partly shown) [Compound A, reference compound]
MIC (Acinetobacter baumannii; strain HDBAB-YK4): 16 µg/mL (≈ 22.6 µM)
MIC (Acinetobacter baumannii; strain HDBAB-YK7): 8 µg/mL (≈ 11.3 µM)
MIC (Acinetobacter baumannii; strain HDBAB-YK12): 4 µg/mL (≈ 5.66 µM)
MIC (Acinetobacter baumannii; strain HDBAB-YK16): 16 µg/mL (≈ 22.6 µM)
MIC (Acinetobacter baumannii; strain HDBAB_OXA_7): 16 µg/mL (≈ 22.6 µM)
MIC (Escherichia coli): 8 µg/mL (≈ 11.3 µM)
MIC (Pseudomonas aeruginosa; strain HDBPA-YK9): 16 µg/mL (≈ 22.6 µM)
MIC (Pseudomonas aeruginosa; strain HDBPA-YK15): 64 µg/mL (≈ 90.6 µM)
Vd ([1]; male, BALB/c, mouse, plasma, iv, 2 mg/kg, male BALB/c mice, single intravenous dose 2 mg/kg, plasma, read-out: VSS): 0.4 L/kg
AUC(0-inf) [1, 8]: 2800 ng·h/mL
AUC(0-t) [1, 8]: 2140 ng·h/mL
C0 [1, 8]: 5920 ng/mL
clearance [1, 8]: 265 mL/min/kg
half-life [1, 8]: 18 min
in vitro antibacterial activity (in words) [2]: significantly weaker

bioavailability (F) (in words) ([1]; compared with some compounds of the present invention): weaker
MIC ([3]; clinical strain A0242702): ≤ 0.063 µg/mL
MIC ([3]; clinical strain A0244122): 2 µg/mL (≈ 2.72 µM)
MIC ([3]; clinical strain A0248164): 2 µg/mL (≈ 2.72 µM)
MIC ([3]; clinical strain A0248384): 2 µg/mL (≈ 2.72 µM)
MIC ([3]; clinical strain A0252247): 0.125 µg/mL (≈ 0.17 µM)
MIC ([3]; clinical strain A0254384): 0.125 µg/mL (≈ 0.17 µM)
MIC ([3]; clinical strain A0255830): 16 µg/mL (≈ 21.7 µM)
MIC ([3]; clinical strain A0257674): 0.125 µg/mL (≈ 0.17 µM)
MIC ([3]; clinical strain A0258522): 0.125 µg/mL (≈ 0.17 µM)
MIC ([3]; clinical strain A0262855): 0.125 µg/mL (≈ 0.17 µM)
MIC ([3]; clinical strain A0270386): 1 µg/mL (≈ 1.36 µM)
MIC ([3]; clinical strain A0272260): 0.125 µg/mL (≈ 0.17 µM)
MIC ([3]; clinical strain A0273375): 1 µg/mL (≈ 1.36 µM)
MIC ([3]; clinical strain A0273826): 16 µg/mL (≈ 21.7 µM)
MIC ([3]; clinical strain A0274925): 0.25 µg/mL (≈ 0.34 µM)
MIC ([3]; clinical strain A0283307): 0.125 µg/mL (≈ 0.17 µM)
MIC ([3]; clinical strain A0284214): 0.125 µg/mL (≈ 0.17 µM)
MIC ([3]; clinical strain A0284295): 0.125 µg/mL (≈ 0.17 µM)
MIC ([3]; clinical strain A0284552): 0.5 µg/mL (≈ 0.68 µM)
MIC ([3]; clinical strain A0285002): 2 µg/mL (≈ 2.72 µM)
MIC ([3]; clinical strain A0285050): 0.25 µg/mL (≈ 0.34 µM)
MIC ([3]; clinical strain A0285231): 2 µg/mL (≈ 2.72 µM)
MIC ([3]; clinical strain A0285299): 0.25 µg/mL (≈ 0.34 µM)
MIC ([3]; clinical strain A0285369): ≤ 0.063 µg/mL
MIC ([3]; clinical strain A0285909): 16 µg/mL (≈ 21.7 µM)
MIC ([3]; clinical strain A0286065): 2 µg/mL (≈ 2.72 µM)
MIC90 ([3]; clinically isolated Acinetobacter baumannii): 16 µg/mL (≈ 21.7 µM)
MIC ([4]; clinical strain HDB0140): 2 µg/mL (≈ 2.72 µM)
MIC ([4]; clinical strain HDB0918): 0.25 µg/mL (≈ 0.34 µM)
MIC ([4]; clinical strain HDB1120): 0.125 µg/mL (≈ 0.17 µM)
MIC ([4]; clinical strain HDB5510): 0.25 µg/mL (≈ 0.34 µM)
MIC ([4]; clinical strain HDB8244): 0.25 µg/mL (≈ 0.34 µM)
MIC ([5]; clinical strain Kp309): 0.25 µg/mL (≈ 0.34 µM)
MIC ([5]; clinical strain Kp310): ≤ 0.063 µg/mL
MIC ([5]; clinical strain Kp472): 0.125 µg/mL (≈ 0.17 µM)
MIC ([5]; clinical strain Kp510): 0.25 µg/mL (≈ 0.34 µM)
MIC ([6]; clinical strain P7): 2 µg/mL (≈ 2.72 µM)
MIC ([6]; clinical strain P43): 0.25 µg/mL (≈ 0.34 µM)
MIC ([6]; clinical strain P155): 2 µg/mL (≈ 2.72 µM)
MIC ([6]; clinical strain P157): 2 µg/mL (≈ 2.72 µM)
MIC ([6]; clinical strain P162): 2 µg/mL (≈ 2.72 µM)
MIC ([7]; strain HDBAB-YK12, in combination with 4 μg/mL Relebactam): 8 µg/mL
MIC ([7]; strain HDBAB-YK16, in combination with 4 μg/mL Relebactam): 16 µg/mL
MIC ([7]; strain HDBAB_OXA_7, in combination with 4 μg/mL Relebactam): 16 µg/mL
Structure (SMILES): CC1(C)[C@H](NC(=O)/C(=N\O[C@@H](COc2ccc(-c3cn(CCCN)[n+](CC4CNC4)c3)cc2)C(=O)O)c2csc(N)n2)C(=O)N1OS(=O)(=O)[O-] [Compound C, reference compound]
in vitro antibacterial activity (in words) [2]: weaker
